The values that follow come from paper PMC4067310, “From Pan-Reactive KV7 Channel Opener to Subtype Selective Opener/Inhibitor by Addition of a Methyl Group” (PLoS ONE, 2014).

This experiment has as its target T1, KV7.4 (Homo sapiens, UniProt P56696).
T1 construct: expressed in transfected cells; host or cells: Xenopus laevis oocytes injected with cRNA (pGEM-HE vector)
T1 sequence (P56696 1-695): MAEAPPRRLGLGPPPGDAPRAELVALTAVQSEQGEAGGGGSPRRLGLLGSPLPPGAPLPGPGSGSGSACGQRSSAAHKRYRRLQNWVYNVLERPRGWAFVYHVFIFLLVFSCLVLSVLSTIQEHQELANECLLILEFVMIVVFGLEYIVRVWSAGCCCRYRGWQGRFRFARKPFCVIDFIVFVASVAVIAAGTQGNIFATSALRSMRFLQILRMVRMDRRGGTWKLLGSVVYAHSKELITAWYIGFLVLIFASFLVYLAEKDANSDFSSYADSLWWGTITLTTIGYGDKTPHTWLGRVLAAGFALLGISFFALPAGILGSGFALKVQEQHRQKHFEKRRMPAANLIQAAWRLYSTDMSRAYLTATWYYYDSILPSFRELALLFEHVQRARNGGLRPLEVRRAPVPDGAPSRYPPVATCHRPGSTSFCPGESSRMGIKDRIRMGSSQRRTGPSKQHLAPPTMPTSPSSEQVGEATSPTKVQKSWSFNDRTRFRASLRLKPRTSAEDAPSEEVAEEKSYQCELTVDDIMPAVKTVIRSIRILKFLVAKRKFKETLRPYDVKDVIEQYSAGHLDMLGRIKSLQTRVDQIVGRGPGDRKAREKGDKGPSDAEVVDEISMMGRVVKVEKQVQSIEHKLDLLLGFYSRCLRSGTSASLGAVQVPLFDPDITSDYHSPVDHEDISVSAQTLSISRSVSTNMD
The experiment can be described thus: Two-electrode voltage-clamp of KV7.4 expressed in Xenopus laevis oocytes. It is filed as cell-based. Here is the method:
Point mutations were introduced using mutated oligonucleotide extension (PfuTurbo Polymerase, Stratagene, La Jolla, CA, USA) from a plasmid template harboring the cDNA of interest, digested with DpnI (Fermentas, St. Leon-Roth, Germany) and transformed into E.coli XL1 Blue cells. The construct was verified by complete DNA sequencing of the cDNA insert. cRNA was prepared from linearized human wild-type (WT) and mutant KV7 channels in the pGEM-HE vector using the T7 m-Message Machine kit (Ambion, Austin, TX, USA) according to the manufacturer's instructions.
Extraction of Xenopus laevis oocytes and injection of cRNA was performed as described previously. Oocytes were kept in Modified Barth's Saline (in mM: 88 NaCl, 1 KCl, 2.4 NaHCO3, 0.41 CaCl2, 0.82 MgSO4, 0.3 Ca(NO3)2, 15 HEPES, pH 7.4 supplemented with 100 U/mL penicillin and 100 µg/mL streptomycin) at 18°C, and currents were recorded after 2-7 days. The care of Xenopus laevis and the oocyte extraction procedure were performed according to national guidelines and approved by the Danish Animal Experiments Inspectorate.
KV7 currents in Xenopus laevis oocytes were recorded using two-electrode voltage-clamp at room temperature in Ringer buffer (in mM: 115 NaCl, 2.5 KCl, 1.8 CaCl2, 0.1 MgCl2, 10 HEPES, pH 7.4) as described previously. Data was acquired using pCLAMP 10.2 software (Molecular Devices, CA, USA) and analyzed using pCLAMP 10.2 and GraphPad Prism 4.0 (GraphPad Software Inc., CA, USA). Currents were elicited from a holding potential of −80 mV by 5 s steps to potentials between −100 and +50 mV in 10 mV increments, followed by a 2 s step to −120 mV.
SMB-1 was dissolved in dimethyl sulfoxide (DMSO) to obtain a concentrated stock solution. On the day of experiments the stock solution was thawed and diluted in Ringer buffer to the final concentrations. A concentration of 10 µM SMB-1 was used unless indicated otherwise. The final DMSO concentration never exceeded 0.1%.
Current – voltage (I–V) relationship curves were generated by normalizing the steady-state peak current measured at potentials between −100 and +50 mV to the current measured at +50 mV in control recordings and plotting the values against the test potential.
The voltage-dependence of activation was determined from tail current analysis using the current measured immediately after the transient capacitive current after stepping to −120 mV from potentials between −100 mV and +50 mV. Data was normalized to extend from 0–1 and the tail current-voltage relationship was fitted to the Boltzmann equation: [drawing 1] (Equation\;1) where I max is the maximum tail current, I min is the minimum tail current, V0.5 is the potential for half maximal activation and k is the slope factor. A V0.5 was calculated for each individual experiment and statistical significance was estimated by paired two-tailed Student's t-test.
Activation kinetics for KV7.4 and KV7.4-W242L was determined by fitting the traces recorded at potentials between −30 and +50 mV to a single exponential function: [drawing 3] (Equation\;3) where I(t) is the current at time t, I 0 is the peak current and τ is the activation time constant.
For investigation of deactivation kinetics the tail current traces recorded at −120 mV when stepping from the channels' respective ∼V0.5 were fitted to a single exponential function (Eq. 3).
Dose-response curves from electrophysiological experiments were made by plotting the increase in steady state current at +50 mV expressed in percentages as a function of drug concentration. The data were then analyzed by non-linear regression and fitted to the equation for sigmoidal dose-response with variable slope: [drawing 4] (Equation\;4) where R1 is the initial response, R2 is the maximum response, X is the logarithm of the drug concentration and nH is the slope (Hill coefficient) of the curve.

`C[C@@H](c1ccc2c(c1)N(CC1CC1)CCO2)N(C)C(=O)/C=C/c1ccccc1F` [SMB-1, (E)-N-[(S)-1-(4-Cyclopropylmethyl-3,4-dihydro-2H-1,4-benzoxazin-6-yl)-ethyl]-3-(2-fluoro-phenyl)-N-methyl-acrylamide] registered a current amplitude, % of control at 10 µM (10 µM SMB-1, +50 mV, n = 8) of 184 ± 12.4%. Further, the “effect on τact” value (10 µM, at all potentials tested) is “significantly increased”. Also, for the setting “10 µM, control 10.3±0.6 ms, n = 8, p<0.001”, the “τdeact, deactivation time constant in presence of compound” value stood at 16.4 ± 1.2 ms. Moreover, the “V0.5, voltage-dependence of activation in presence of compound” value (10 µM, control −0.2±3.6 mV, n = 8, p = 0.59) was −1.4±3.4 mV. Further, where the note is “+50 mV, n = 5, read-out: maximal efficacy”, the Emax was found to be 213 ± 33.1%. The EC50 (increase in steady state current at +50 mV, n = 5) was determined as 5.7 µM.

By EC50 is commonly meant the concentration that produces a half-maximal response.
